As a reminder, the MIC50 is an inhibitory concentration at the 50% level, which refers to growth in some studies and to a panel of isolates in others. In general, MIC90 refers to an inhibitory concentration at the 90% level, which refers to growth in some studies and to a panel of isolates in others. A higher MIC90 goes with lower susceptibility. By MIC is commonly meant the least concentration at which growth counts as inhibited. Low values mean greater potency, high ones weaker potency.

Where two headings read alike, the source gives them in different places. Positions of bridges follow the written chain, without caps; N, C: chain ends. Non-standard residues stand in square brackets, D forms with d. Residues, ends and D or L forms follow the SMILES beside them. No end group written: not given here. dDab = NCC[C@@H](N)C(=O)O; Orn = NCCC[C@H](N)C(=O)O; Dab = NCC[C@H](N)C(=O)O

The values below come from US20260242418A1, “CYCLIC PEPTIDES WITH ANTIBACTERIAL ACTIVITY AGAINST MULTIDRUG RESISTANT (MDR) PATHOGENS” (priority 2022, published 2026).

One data set deals with Acinetobacter baumannii. Type of data set: cell-based. From the text:
(§1) Minimum Inhibitory Concentration (MIC) of a peptide of SEQ D NO: 4 (abbreviated PLP-3) and colistin against a collection of clinically relevant and commercially available bacterial strains was obtained via broth microdilution. The protocol for antimicrobial activity determination, detailed below, consisted in a modification of Clinical & Laboratory Standards Institute (CLSI) Guidelines.
(§2) MIC is the value defined as the lowest concentration of an antimicrobial, in these tests either PLP-3 or colistin, which inhibits the macroscopic growth of a bacterial strain after 18-22 h incubation at 37° C. The results from these assays are obtained via visual identification of the bacterial bottom at the end of the wells of the testing plate. Since the wells contain decreasing concentrations of the compounds, the final result is indicated as a concentration, MIC, expressed in μg/mL of the agent (in this case PLP-3 or colistin).
(§3) Bacterial strains were streaked in Columbia Agar plates (Columbia Agar with 5% Sheep Blood 90 mm Stacker plates, BD) and incubated overnight at 37° C. Polypropylene round bottomed 96-well plates were filled with 50 μL/well of Mueller-Hinton Broth (MHB, CM0405, 500 g, ThermoFisher Scientific™ Oxoid™) and 50 μL of either colistin or PLP-3 (at 4× the chosen initial concentration of the test) were added to the first well of each row of the plate followed by serial dilutions up until the 10th column of the plate.
(§4) Finally, strain inoculums were prepared by diluting 1:100 0.5 McFarland solutions in MHB. Plates were then inoculated with 50 μL of the inoculums and covered with film before 18 to 22 h incubation at 37 C.
(§5) Three biological and three technical replicates were performed per strain.
(§6) Broth microdilution testing of 15 strains of each species provided MIC50 and […] values (Table 4). Strains were either from clinical origin, relevant to current clinical situation, or commercially available strains belonging to the American Type Culture Collection (ATCC), namely: A. baumannii 17978 and 19606, K. pneumoniae 13883 and P. aeruginosa 27853.
(§7) This panel represents an example of relevant MDR, colistin resistant and colistin susceptible strains from which to compare results. The minimum inhibitory concentration (MIC) is the lowest concentration of a chemical, usually a drug, which prevents visible growth of a bacterium or bacteria. MIC50 represents the antimicrobial concentration value that inhibits the growth of 50% of the bacterial strains and […] of each species from the tested panel of strains. Being colistin both a peptide and a last-resource antibiotic, it was included in these assays for comparison against a commercially available antibiotic.

In another data set the test system is Klebsiella pneumoniae. Type of data set: cell-based.
From the text: as §1, §2, §3, §4, §5, §6, §7

Another data set concerns Pseudomonas aeruginosa. Type of data set: cell-based.
From the text: as §1, §2, §3, §4, §5, §6, §7
P. aeruginosa ATCC 27853 strain (commercially available from the American Type Collection Culture) was used as control by performing MICs to colistin and PLP-3 in all broth microdilution assays

The conditions of data set [1]: in vivo, iv; cited from earlier work.
The subject of a further data set is human cells. The conditions noted are these: cited from earlier work.
Setting [2] is: panel of 15 A. baumannii strains.
Setting [3] is: panel of 15 K. pneumoniae strains.
The mark [4] stands for this setting: panel of 15 P. aeruginosa strains.

Consider colistin [reference compound], for which the MIC50 with Acinetobacter baumannii (setting [2]) is 0,5 μg/mL; against Klebsiella pneumoniae (setting [3]), 8 µg/mL; in the data set with Pseudomonas aeruginosa (setting [4]), 0,5 μg/mL. Further, the MIC90 in the data set with Acinetobacter baumannii (setting [2]) was 64 µg/mL; in the data set on Klebsiella pneumoniae (setting [3]) it was over 64 µg/mL; against Pseudomonas aeruginosa (setting [4]), 64 µg/mL. Besides, the MIC stood at 0.5 µg/mL in the data set on Acinetobacter baumannii (strain 8* (MDR)); 0.25 µg/mL in the data set on Acinetobacter baumannii (strain 19* (MDR)); 0.5 µg/mL in the data set with Acinetobacter baumannii (strain 80* (MDR)); 0.25 µg/mL with Acinetobacter baumannii (strain 174* (MDR)); 0.5 µg/mL against Acinetobacter baumannii (strain 180* (MDR)); 8 µg/mL in the data set with Acinetobacter baumannii (strain 210* (MDR)). For the same compound, the MIC in the data set on Acinetobacter baumannii (strain 226* (MDR)) came out at 0.25 µg/mL; with Acinetobacter baumannii (strain 253* (MDR)), 0.25 µg/mL; against Acinetobacter baumannii (strain 317), 0.25 µg/mL; against Acinetobacter baumannii (strain 383), 0.25 µg/mL; in the data set on Acinetobacter baumannii (strain 19606), 0.5 µg/mL; in the data set with Acinetobacter baumannii (strain ATCC 17978) it was 0.25 µg/mL. Also, the MIC is over 64 µg/mL with Acinetobacter baumannii (strain CR17* (MDR)); 64 µg/mL in the data set with Acinetobacter baumannii (strain CR49); 64 µg/mL against Acinetobacter baumannii (strain CR86); 32 µg/mL in the data set with Klebsiella pneumoniae (strain 145* (MDR)); over 64 µg/mL against Klebsiella pneumoniae (strain 398* (MDR)); 0.25 µg/mL in the data set with Klebsiella pneumoniae (strain 545). The MIC was 0.25 µg/mL with Klebsiella pneumoniae (strain 674* (MDR)); over 64 µg/mL in the data set on Klebsiella pneumoniae (strain 681* (MDR)); 0.5 µg/mL against Klebsiella pneumoniae (strain 716* (MDR)); 0.5 µg/mL against Klebsiella pneumoniae (strain 741* (MDR)); 0.5 µg/mL in the data set with Klebsiella pneumoniae (strain 851* (MDR)); over 64 µg/mL in the data set on Klebsiella pneumoniae (strain 994* (MDR)). In addition, the minimal inhibitory concentration (MIC) against Klebsiella pneumoniae (strain 1052* (MDR)) was over 64 µg/mL; against Klebsiella pneumoniae (strain 1078* (MDR)) it was 64 µg/mL; against Klebsiella pneumoniae (strain 1129* (MDR)) it was 0.5 µg/mL; with Klebsiella pneumoniae (strain 1478* (MDR)), over 64 µg/mL; against Klebsiella pneumoniae (strain 1480* (MDR)), 0.25 µg/mL; in the data set with Klebsiella pneumoniae (strain ATCC 13883), 1 µg/mL. In addition, the MIC in the data set on Pseudomonas aeruginosa (strain 36a) was at most 0.125 µg/mL; in the data set on Pseudomonas aeruginosa (strain 38a), 0.25 µg/mL; against Pseudomonas aeruginosa (strain ATCC 27853 (Table 2)), at most 0.125 µg/mL; against Pseudomonas aeruginosa (strain ATCC 27853, control in the A. baumannii panel (Table 1)) it was at most 0.125 µg/mL; in the data set on Pseudomonas aeruginosa (strain ATCC 27853, control in the K. pneumoniae panel (Table 3)), 0.25 µg/mL; in the data set with Pseudomonas aeruginosa (strain C1), 0.5 µg/mL. The MIC was 1 µg/mL with Pseudomonas aeruginosa (strain C2); 0.5 µg/mL against Pseudomonas aeruginosa (strain C3); 0.5 µg/mL with Pseudomonas aeruginosa (strain C4); over 64 µg/mL against Pseudomonas aeruginosa (strain R1); 64 µg/mL against Pseudomonas aeruginosa (strain R2); 32 µg/mL in the data set with Pseudomonas aeruginosa (strain R3* (MDR)). The MIC in the data set on Pseudomonas aeruginosa (strain S1) is at most 0.125 µg/mL; with Pseudomonas aeruginosa (strain S2* (MDR)), at most 0.125 µg/mL; against Pseudomonas aeruginosa (strain S3) it was 0.5 µg/mL; against Pseudomonas aeruginosa (strain S4), at most 0.125 µg/mL; in the data set on Pseudomonas aeruginosa (strain S5) it was at most 0.125 µg/mL.

Consider `CC[C@H](C)[C@@H]1NC(=O)[C@H](Cc2c[nH]c3ccccc23)NC(=O)[C@H]([C@@H](C)O)NC(=O)[C@@H]2CCCN2C(=O)[C@H]2CCCN2C(=O)[C@H](CO)NC(=O)[C@H](C)NC(=O)[C@H](CCN)NC(=O)[C@H](CCN)NC(=O)[C@H](Cc2c[nH]c3ccccc23)NC(=O)[C@H](CCN)NC(=O)[C@@H](CCN)NC(=O)[C@H](CCCN)NC(=O)[C@H](CCN)NC1=O` [Murepavadin, cyclo[Ala-Ser-D-Pro-Pro-Thr-Trp-Ile-Dab-Orn-D-Dab-Dab-Trp-Dab-Dab]] (cyclo(TWI[Dab][Orn][dDab][Dab]W[Dab][Dab]AS[dP]P)), for which the “adverse finding in phase-III clinical trials” value in data set [1] was “kidney damage in over half of the patients”.

Consider “RGGRLCYCRRRFCVCVGR (disulfide 8-13, 6-15; listed as Sus scrofa) [PG-1]”, for which the “haemolysis and toxicity against human cells” value in the data set on human cells was “significant haemolysis and toxicity”.
